Data: US12643903B2, “Bifunctional compounds for degradation of EGFR and related methods of use” (BeiGene, Ltd., priority 2020, dated 2026)

Columns and labels:
Type in all cases: cell-based
Conditions in all cases: 16 h treatment, EGFR degradation by HTRF
EGFR LTC = target: T1, EGFR LTC (Homo sapiens, UniProt P00533, C797S/L858R/T790M); test: Cell Degradation 3: EGFR degradation in BaF3 cells (LTC), HTRF assay
T1 construct: expressed in transfected cells; host or cells: BaF3
Summary of the method: (§1)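 BaF3 cells expressing EGFR (LTC triple mutant C797S/L858R/T790M or DTC) exposed to compounds for 16 h, 8 doses from 4-fold dilution, 0.2% DMSO. Residual EGFR quantified by HTRF in lysates (triple mutant lysate diluted 1:1); DC50 from four-parameter logistic fit.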

EGFR [1] = target: T2, EGFR (Homo sapiens, UniProt P00533, DEL746-750); test: Cell Degradation 2: EGFR degradation in HCC827 cells, HTRF assay
T2 construct: endogenous in cells; host or cells: HCC827
T2 sequence (P00533 with tags, fused parts or gaps DEL746-750): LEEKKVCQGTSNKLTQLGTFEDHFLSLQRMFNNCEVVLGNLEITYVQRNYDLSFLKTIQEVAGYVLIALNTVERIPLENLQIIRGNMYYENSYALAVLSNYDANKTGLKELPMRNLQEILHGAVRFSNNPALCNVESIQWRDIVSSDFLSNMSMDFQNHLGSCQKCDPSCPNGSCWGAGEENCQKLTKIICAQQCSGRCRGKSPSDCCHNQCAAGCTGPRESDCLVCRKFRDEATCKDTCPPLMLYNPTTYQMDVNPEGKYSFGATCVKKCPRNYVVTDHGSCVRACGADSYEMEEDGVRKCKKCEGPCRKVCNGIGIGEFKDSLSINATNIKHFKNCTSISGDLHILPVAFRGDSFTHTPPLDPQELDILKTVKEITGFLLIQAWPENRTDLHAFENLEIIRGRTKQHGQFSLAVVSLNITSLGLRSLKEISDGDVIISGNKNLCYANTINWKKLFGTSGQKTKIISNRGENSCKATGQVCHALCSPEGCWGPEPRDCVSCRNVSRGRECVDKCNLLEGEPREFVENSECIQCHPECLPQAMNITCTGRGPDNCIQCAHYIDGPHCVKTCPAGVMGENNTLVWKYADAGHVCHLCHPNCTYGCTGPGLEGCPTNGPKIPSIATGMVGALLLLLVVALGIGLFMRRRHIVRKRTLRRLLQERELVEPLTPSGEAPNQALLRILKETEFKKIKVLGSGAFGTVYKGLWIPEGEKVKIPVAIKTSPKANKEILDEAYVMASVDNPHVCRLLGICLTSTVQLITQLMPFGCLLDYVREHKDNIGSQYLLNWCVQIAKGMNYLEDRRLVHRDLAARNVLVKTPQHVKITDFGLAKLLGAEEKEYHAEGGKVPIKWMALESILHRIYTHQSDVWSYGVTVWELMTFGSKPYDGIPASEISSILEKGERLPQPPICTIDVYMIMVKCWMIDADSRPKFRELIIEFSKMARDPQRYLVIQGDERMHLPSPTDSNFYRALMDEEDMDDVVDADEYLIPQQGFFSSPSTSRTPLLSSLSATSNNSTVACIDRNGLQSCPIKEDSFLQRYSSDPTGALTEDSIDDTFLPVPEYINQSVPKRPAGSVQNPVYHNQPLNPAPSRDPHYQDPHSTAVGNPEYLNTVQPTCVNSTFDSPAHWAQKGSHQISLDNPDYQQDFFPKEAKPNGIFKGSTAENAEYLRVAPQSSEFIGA
T2 sequence (Q96SW2 whole entry partner): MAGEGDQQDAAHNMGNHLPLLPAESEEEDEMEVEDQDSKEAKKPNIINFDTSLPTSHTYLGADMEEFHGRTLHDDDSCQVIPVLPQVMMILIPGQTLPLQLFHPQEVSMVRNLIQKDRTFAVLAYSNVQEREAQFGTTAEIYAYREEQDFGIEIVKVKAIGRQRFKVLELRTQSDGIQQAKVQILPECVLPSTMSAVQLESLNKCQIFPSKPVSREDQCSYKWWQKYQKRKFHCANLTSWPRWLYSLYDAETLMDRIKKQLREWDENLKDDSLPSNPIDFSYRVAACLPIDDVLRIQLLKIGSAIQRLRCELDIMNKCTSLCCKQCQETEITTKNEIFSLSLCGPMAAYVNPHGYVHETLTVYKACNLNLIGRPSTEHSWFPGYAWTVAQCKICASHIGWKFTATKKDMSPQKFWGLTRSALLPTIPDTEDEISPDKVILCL
Summary of the method: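 Compound-treated HCC827 cells were lysed after 16 h and EGFR measured by HTRF (337 nm excitation, 665/620 nm emission) after overnight antibody incubation at room temperature. DC50 came from a four-parameter fit of percent inhibition against compound concentration.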

EGFR DTC = test: Cell Degradation 3: EGFR degradation in BaF3 cells (DTC), HTRF assay
Summary of the method: as §1

EGFR [2] = target: T3, EGFR (Homo sapiens, UniProt P00533, L858R/T790M); test: Cell Degradation 1: EGFR degradation in H1975 cells, HTRF assay
T3 construct: endogenous in cells; host or cells: H1975
T3 sequence (P00533 25-1210 T790M/L858R): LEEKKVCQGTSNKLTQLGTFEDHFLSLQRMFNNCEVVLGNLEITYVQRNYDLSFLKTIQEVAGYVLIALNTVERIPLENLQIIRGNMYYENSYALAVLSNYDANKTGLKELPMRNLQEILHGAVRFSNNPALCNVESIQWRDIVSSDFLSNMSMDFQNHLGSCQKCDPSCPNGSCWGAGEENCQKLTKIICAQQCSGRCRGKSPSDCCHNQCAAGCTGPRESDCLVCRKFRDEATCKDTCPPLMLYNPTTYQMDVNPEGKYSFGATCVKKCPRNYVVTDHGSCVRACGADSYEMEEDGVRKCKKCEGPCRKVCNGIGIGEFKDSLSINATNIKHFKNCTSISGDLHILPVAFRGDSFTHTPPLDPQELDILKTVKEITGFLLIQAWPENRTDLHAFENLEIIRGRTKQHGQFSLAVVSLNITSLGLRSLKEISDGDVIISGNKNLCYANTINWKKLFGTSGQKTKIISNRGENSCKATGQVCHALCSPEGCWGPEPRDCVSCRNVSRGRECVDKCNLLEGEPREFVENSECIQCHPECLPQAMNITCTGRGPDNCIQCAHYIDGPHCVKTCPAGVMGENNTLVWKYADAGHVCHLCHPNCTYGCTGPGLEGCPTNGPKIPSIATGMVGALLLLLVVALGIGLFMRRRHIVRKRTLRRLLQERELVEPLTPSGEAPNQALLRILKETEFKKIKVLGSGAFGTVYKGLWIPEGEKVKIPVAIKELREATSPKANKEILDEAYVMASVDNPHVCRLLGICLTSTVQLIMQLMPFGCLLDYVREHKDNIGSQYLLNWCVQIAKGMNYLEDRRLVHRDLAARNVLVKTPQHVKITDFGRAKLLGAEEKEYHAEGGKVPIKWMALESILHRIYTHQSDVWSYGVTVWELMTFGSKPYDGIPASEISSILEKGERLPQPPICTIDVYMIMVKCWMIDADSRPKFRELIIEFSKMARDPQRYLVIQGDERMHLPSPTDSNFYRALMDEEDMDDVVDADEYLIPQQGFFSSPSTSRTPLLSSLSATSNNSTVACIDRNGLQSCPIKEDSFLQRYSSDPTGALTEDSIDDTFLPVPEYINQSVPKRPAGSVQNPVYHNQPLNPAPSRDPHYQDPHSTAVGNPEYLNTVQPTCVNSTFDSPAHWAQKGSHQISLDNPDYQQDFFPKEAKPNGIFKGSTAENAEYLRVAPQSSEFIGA
Summary of the method: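 H1975 cells treated with compound for 16 h, lysed 1 h at room temperature. EGFR measured by HTRF after overnight antibody incubation (665/620 nm). DC50 from four-parameter logistic fit of percent inhibition against concentration.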

T1 sequence (P00533 25-1210 T790M/C797S/L858R): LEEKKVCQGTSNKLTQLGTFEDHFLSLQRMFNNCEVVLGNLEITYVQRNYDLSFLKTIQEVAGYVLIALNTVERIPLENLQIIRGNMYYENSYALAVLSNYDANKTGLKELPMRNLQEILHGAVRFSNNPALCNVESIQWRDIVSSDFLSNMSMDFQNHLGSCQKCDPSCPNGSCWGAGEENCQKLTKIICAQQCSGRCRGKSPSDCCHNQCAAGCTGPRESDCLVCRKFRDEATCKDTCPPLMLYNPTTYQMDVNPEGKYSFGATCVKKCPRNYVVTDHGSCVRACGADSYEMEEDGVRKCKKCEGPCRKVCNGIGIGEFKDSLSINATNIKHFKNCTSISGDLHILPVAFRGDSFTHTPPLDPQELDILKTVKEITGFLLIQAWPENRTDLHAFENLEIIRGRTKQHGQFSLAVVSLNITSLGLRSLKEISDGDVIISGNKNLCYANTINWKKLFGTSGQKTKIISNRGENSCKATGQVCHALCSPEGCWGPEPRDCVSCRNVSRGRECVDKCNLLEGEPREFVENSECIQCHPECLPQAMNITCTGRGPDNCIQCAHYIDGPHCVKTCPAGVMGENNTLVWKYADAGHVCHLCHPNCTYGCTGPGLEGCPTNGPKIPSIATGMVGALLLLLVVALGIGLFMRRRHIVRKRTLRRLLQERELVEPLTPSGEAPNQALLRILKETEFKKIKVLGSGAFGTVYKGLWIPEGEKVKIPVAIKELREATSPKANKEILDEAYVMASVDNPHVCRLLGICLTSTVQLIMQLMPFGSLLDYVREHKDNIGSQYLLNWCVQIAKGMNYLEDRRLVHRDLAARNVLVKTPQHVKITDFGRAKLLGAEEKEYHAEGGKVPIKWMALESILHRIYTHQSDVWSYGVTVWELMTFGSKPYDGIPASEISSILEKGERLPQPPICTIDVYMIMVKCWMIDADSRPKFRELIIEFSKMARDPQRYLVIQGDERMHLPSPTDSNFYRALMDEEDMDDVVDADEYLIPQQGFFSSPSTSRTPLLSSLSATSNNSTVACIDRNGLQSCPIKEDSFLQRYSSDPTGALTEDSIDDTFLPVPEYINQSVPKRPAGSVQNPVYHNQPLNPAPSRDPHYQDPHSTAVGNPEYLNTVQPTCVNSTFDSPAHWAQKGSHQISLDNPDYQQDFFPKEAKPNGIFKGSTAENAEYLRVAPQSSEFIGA

SMILES | DC50 (EGFR LTC) [nM] | DC50 (EGFR [1]) [nM] | DC50 (EGFR DTC) [nM] | DC50 (EGFR [2]) [nM]
CS(=O)(=O)N1CCc2cccc(Nc3nc(Nc4ccc(N5CCC(N6CCN(C(=O)C7CN(c8ccc9c(c8)C(=O)N(C8CCC(=O)NC8=O)C9=O)C7)CC6)CC5)c(F)c4)ncc3Cl)c21 (stereo not drawn) [Example 77, 5-(3-(4-(1-(4-((5-chloro-4-((1-(methylsulfonyl)indolin-7-yl)amino)pyrimidin-2-yl)amino)-2-fluorophenyl)piperidin-4-yl)piperazine-1-carbonyl)azetidin-1-yl)-2-(2,6-dioxopiperidin-3-yl)isoindoline-1,3-dione] | 2.7 | 1.7 | 1.8 | 2.3
COc1cc(N2CCC(N3CCN(C[C@H]4C[C@H](c5ccc6c(c5)CN(C5CCC(=O)NC5=O)C6=O)C4)CC3)CC2)c(C)cc1Nc1ncc(Br)c(Nc2cccc3c2N(S(C)(=O)=O)CC3)n1 (stereo partly drawn) [Example 159, 3-(5-((1r,3r)-3-((4-(1-(4-((5-bromo-4-((1-(methylsulfonyl)indolin-7-yl)amino)pyrimidin-2-yl)amino)-5-methoxy-2-methylphenyl)piperidin-4-yl)piperazin-1-yl)methyl)cyclobutyl)-1-oxoisoindolin-2-yl)piperidine-2,6-dione] | 19 | 2 | 11 | 3
COc1cc(N2CCC(N3CCN(C[C@H]4CCN(c5ccc6c(c5)CN(C5CCC(=O)NC5=O)C6=O)C4)CC3)CC2)c(C)cc1Nc1ncc(Br)c(Nc2cccc3c2N(S(C)(=O)=O)CC3)n1 (stereo partly drawn) [Example 168, 3-(5-((R)-3-((4-(1-(4-((5-bromo-4-((1-(methylsulfonyl)indolin-7-yl)amino)pyrimidin-2-yl)amino)-5-methoxy-2-methylphenyl)piperidin-4-yl)piperazin-1-yl)methyl)pyrrolidin-1-yl)-1-oxoisoindolin-2-yl)piperidine-2,6-dione] | 25 | 2 | 14 | 7
CS(=O)(=O)N1CCc2cccc(Nc3nc(Nc4ccc(N5CCC(N6CCN(C(=O)[C@@H]7CCN(c8ccc9c(c8)C(=O)N(C8CCC(=O)NC8=O)C9=O)C7)CC6)CC5)c(F)c4)nc4[nH]ccc34)c21 (stereo partly drawn) [Example 62, 2-(2,6-dioxopiperidin-3-yl)-5-((R)-3-(4-(1-(2-fluoro-4-((4-((1-(methylsulfonyl)indolin-7-yl)amino)-7H-pyrrolo[2,3-d]pyrimidin-2-yl)amino)phenyl)piperidin-4-yl)piperazine-1-carbonyl)pyrrolidin-1-yl)isoindoline-1,3-dione] | 4.7 | 22.1 | 3 | 4.4
CS(=O)(=O)N1CCc2cccc(Nc3nc(Nc4ccc(N5CCC(N6CCN(CCC7CCN(c8ccc(C9CCC(=O)NC9=O)cc8)CC7)CC6)CC5)c5c4OCC5)ncc3Cl)c21 (stereo not drawn) [Example 54, 3-(4-(4-(2-(4-(1-(7-((5-chloro-4-((1-(methylsulfonyl)indolin-7-yl)amino)pyrimidin-2-yl)amino)-2,3-dihydrobenzofuran-4-yl)piperidin-4-yl)piperazin-1-yl)ethyl)piperidin-1-yl)phenyl)piperidine-2,6-dione] | 443 | 8.9 | 120 | 8.9
CS(=O)(=O)N1CCc2cccc(Nc3nc(Nc4ccc(N5CCC(N6CCN(C(=O)[C@H]7CCN(c8ccc9c(c8)C(=O)N(C8CCC(=O)NC8=O)C9=O)C7)CC6)CC5)c(F)c4)ncc3Cl)c21 (stereo partly drawn) [Example 82, 5-((S)-3-(4-(1-(4-((5-chloro-4-((1-(methylsulfonyl)indolin-7-yl)amino)pyrimidin-2-yl)amino)-2-fluorophenyl)piperidin-4-yl)piperazine-1-carbonyl)pyrrolidin-1-yl)-2-(2,6-dioxopiperidin-3-yl)isoindoline-1,3-dione] | 15.1 | 2.8 | 3.5 | 3.2
COc1cc(N2CCC(N3CCN(CCc4ccc(C5CCC(=O)NC5=O)cc4)CC3)CC2)c(C)cc1Nc1ncc(Br)c(Nc2cccc3c2N(S(C)(=O)=O)CC3)n1 (stereo not drawn) [Example 39, 3-(4-(2-(4-(1-(4-((5-bromo-4-((1-(methylsulfonyl)indolin-7-yl)amino)pyrimidin-2-yl)amino)-5-methoxy-2-methylphenyl)piperidin-4-yl)piperazin-1-yl)ethyl)phenyl)piperidine-2,6-dione] | 157 | 13.6 | 33.7 | 12.1
COc1cc(N2CCC(N3CCN(C(=O)[C@@H]4CCN(c5ccc6c(c5)C(=O)N(C5CCC(=O)NC5=O)C6=O)C4)CC3)CC2)ccc1Nc1ncc(Cl)c(Nc2cccc3c2N(S(C)(=O)=O)CC3)n1 (stereo partly drawn) [Example 88, 5-((R)-3-(4-(1-(4-((5-chloro-4-((1-(methylsulfonyl)indolin-7-yl)amino)pyrimidin-2-yl)amino)-3-methoxyphenyl)piperidin-4-yl)piperazine-1-carbonyl)pyrrolidin-1-yl)-2-(2,6-dioxopiperidin-3-yl)isoindoline-1,3-dione] | 43.3 | 2.7 | 15.6 | 4.2
COc1cc(N2CCC(N3CCN(CC4CN(c5ccc6c(c5)C(=O)N(C5CCC(=O)NC5=O)C6=O)C4)CC3)CC2)ccc1Nc1ncc(Cl)c(Nc2cccc3c2N(S(C)(=O)=O)CC3)n1 (stereo not drawn) [Example 86, 5-(3-((4-(1-(4-((5-chloro-4-((1-(methylsulfonyl)indolin-7-yl)amino)pyrimidin-2-yl)amino)-3-methoxyphenyl)piperidin-4-yl)piperazin-1-yl)methyl)azetidin-1-yl)-2-(2,6-dioxopiperidin-3-yl)isoindoline-1,3-dione] | 16.2 | 2.7 | 13 | 1.8
CS(=O)(=O)N1CCc2cccc(Nc3nc(Nc4ccc(N5CCC(N6CCN(CCc7cc(F)c(C8CCC(=O)NC8=O)c(F)c7)CC6)CC5)c(F)c4)nc4[nH]ccc34)c21 (stereo not drawn) [Example 68, 3-(2,6-difluoro-4-(2-(4-(1-(2-fluoro-4-((4-((1-(methylsulfonyl)indolin-7-yl)amino)-7H-pyrrolo[2,3-d]pyrimidin-2-yl)amino)phenyl)piperidin-4-yl)piperazin-1-yl)ethyl)phenyl)piperidine-2,6-dione] | 4.4 | 17.6 | 3 | 3.7
CS(=O)(=O)N1CCc2cccc(Nc3nc(Nc4ccc(N5CCC(N6CCN(CCc7ccc(C8CCC(=O)NC8=O)cc7)CC6)CC5)c(F)c4)ncc3Cl)c21 (stereo not drawn) [Example 45, 3-(4-(2-(4-(1-(4-((5-chloro-4-((1-(methylsulfonyl)indolin-7-yl)amino)pyrimidin-2-yl)amino)-2-fluorophenyl)piperidin-4-yl)piperazin-1-yl)ethyl)phenyl)piperidine-2,6-dione] | 17.3 | 6.7 | 9.9 | 2.3
COc1cc(N2CCC(N3CCN(CCc4cc(F)c(C5CCC(=O)NC5=O)c(F)c4)CC3)CC2)c(C)cc1Nc1nc(Nc2cccc3c2N(S(C)(=O)=O)CC3)c2cc[nH]c2n1 (stereo not drawn) [Example 163, 3-(2,6-difluoro-4-(2-(4-(1-(5-methoxy-2-methyl-4-((4-((1-(methylsulfonyl)indolin-7-yl)amino)-7H-pyrrolo[2,3-d]pyrimidin-2-yl)amino)phenyl)piperidin-4-yl)piperazin-1-yl)ethyl)phenyl)piperidine-2,6-dione] | 40 | 20 | 49 | 3
CS(=O)(=O)N1CCc2cccc(Nc3nc(Nc4ccc(N5CCC(N6CCN(CCc7ccc(C8CCC(=O)NC8=O)c(F)c7)CC6)CC5)c(F)c4)nc4[nH]ccc34)c21 (stereo not drawn) [Example 3, 3-(2-fluoro-4-(2-(4-(1-(2-fluoro-4-((4-((1-(methylsulfonyl)indolin-7-yl)amino)-7H-pyrrolo[2,3-d]pyrimidin-2-yl)amino)phenyl)piperidin-4-yl)piperazin-1-yl)ethyl)phenyl)piperidine-2,6-dione] | 19.9 | 19.8 | 11.6 | 9.5
COc1cc(N2CCC(N3CCN(C(=O)[C@H]4CCN(c5ccc6c(c5)C(=O)N(C5CCC(=O)NC5=O)C6=O)C4)CC3)CC2)ccc1Nc1ncc(Cl)c(Nc2cccc3c2N(S(C)(=O)=O)CC3)n1 (stereo partly drawn) [Example 87, 5-((S)-3-(4-(1-(4-((5-chloro-4-((1-(methylsulfonyl)indolin-7-yl)amino)pyrimidin-2-yl)amino)-3-methoxyphenyl)piperidin-4-yl)piperazine-1-carbonyl)pyrrolidin-1-yl)-2-(26-dioxopiperidin-3-yl)isoindoline-1,3-dione] | 16.5 | 3.1 | 2.4 | 3.5
COc1cc(N2CCC(N3CCN(CCC4CCN(c5ccc(C6CCC(=O)NC6=O)cc5)CC4)CC3)CC2)ccc1Nc1ncc(Cl)c(Nc2cccc3c2N(S(C)(=O)=O)CC3)n1 (stereo not drawn) [Example 35, 3-(4-(4-(2-(4-(1-(4-((5-chloro-4-((1-(methylsulfonyl)indolin-7-yl)amino)pyrimidin-2-yl)amino)-3-methoxyphenyl)piperidin-4-yl)piperazin-1-yl)ethyl)piperidin-1-yl)phenyl)piperidine-2,6-dione] | 203 | 8.4 | 48.1 | 7.2
